Data as given in publication PMC5735979, “Total Coumarins from Hydrangea paniculata Show Renal Protective Effects in Lipopolysaccharide-Induced Acute Kidney Injury via Anti-inflammatory and Antioxidant Activities” (Frontiers in Pharmacology, 2017).

Tests used:
[1] = Pharmacokinetics study after single oral dose of HP; format: in vivo, C57BL/6 mice; details: male, C57BL/6, mouse, in vivo, mice, n = 5
Method: All of the animals were fasted for 12 h before receiving HP and were then allowed to eat for 4 h after administration. The dosing solutions used for the animal studies were prepared by dissolving the required amounts of HP in distilled water. […] The plasma was separated and stored at 2–8°C until analysis. […] Louis, MO, USA) and then mixed with 180 μL of acetonitrile (Merck, Darmstadt, Germany) to precipitate protein. After centrifugation, aliquots (10 μL each) of the supernatant were used for analysis. […] The mobile phase consisted of solvent A [0.1% formic acid (Dikma Technologies, Inc., CA, USA) in water] and solvent B [0.1% formic acid in methanol (Merck)]. The analytes were eluted at a flow rate of 0.2 mL/min, with the following gradient elution: from 0 to 0.6 min, 20% B; linear increase to 95% B in 0.2 min; 95% B for 4 min, decrease to 20% B in 0.2 min; and stabilization at initial conditions for 6 min. The mass spectrometer was set for multiple reaction monitoring and was operated in a positive-ion mode with an electrospray ionization source. Nitrogen was used as the curtain gas and the collision gas. The ion-spray voltage was set at 5,500 V, and the gas temperature at 500°C.

[2] = test system: streptozotocin-induced diabetic nephropathy; design: method as in Zhang et al., 2012; details: ref Zhang et al., 2012; cited from earlier work
[3] = test system: cationized BSA-induced membranous glomerulitis; design: method as in Zhang et al., 2013; details: ref Zhang et al., 2013; cited from earlier work
[4] = plasma, single oral dose of 50 mg/kg HP

In the case of `O=c1ccc2ccc(O[C@@H]3O[C@H](CO)[C@@H](O)[C@H](O)[C@H]3O)cc2o1` [Skimmin, skimmin], the concentration at 0.08 h ([1]; 0.08 h after single oral dose of 50 mg/kg HP, mean ± SD, read-out: Blood drug concentration) is reported as 7.5 ± 2.94 µM, the concentration at 0.25 h ([1]; 0.25 h after single oral dose of 50 mg/kg HP, mean ± SD, read-out: Blood drug concentration) is reported as 14.2 ± 3.71 µM and the concentration at 0.5 h ([1]; 0.5 h after single oral dose of 50 mg/kg HP, mean ± SD, read-out: Blood drug concentration) is reported as 12.6 ± 2.12 µM. The concentration at 1 h ([1]; 1 h after single oral dose of 50 mg/kg HP, mean ± SD, read-out: Blood drug concentration) was 7.41 ± 1.53 µM, the concentration at 1.5 h ([1]; 1.5 h after single oral dose of 50 mg/kg HP, mean ± SD, read-out: Blood drug concentration) was 4.44 ± 0.89 µM and the concentration at 2 h ([1]; 2 h after single oral dose of 50 mg/kg HP, mean ± SD, read-out: Blood drug concentration) was 3.64 ± 0.94 µM. The concentration at 3 h ([1]; 3 h after single oral dose of 50 mg/kg HP, mean ± SD, read-out: Blood drug concentration) was 2.37 ± 3.51 µM, the concentration at 4 h ([1]; 4 h after single oral dose of 50 mg/kg HP, mean ± SD, read-out: Blood drug concentration) was 1.16 ± 1.11 µM and the concentration at 8 h ([1]; 8 h after single oral dose of 50 mg/kg HP, mean ± SD, read-out: Blood drug concentration) was 0.17 ± 0.22 µM. It also gave a concentration at 12 h ([1]; 12 h after single oral dose of 50 mg/kg HP, mean ± SD, read-out: Blood drug concentration) of 0.05 ± 0.02 µM, a half-life ([1]; elimination half-life, plasma, single oral dose of 50 mg/kg HP) of 1.55 h and an AUC(0-inf) [1, 4] of 23.4 µM·h. For the same compound, the AUC(0-t) [1, 4] was 23.3 µM·h, the Cmax [1, 4] was 14.2 µM and the Tmax [1, 4] was 0.25 h. The MRT last ([1]; plasma, single oral dose of 50 mg/kg HP, read-out: MRT(0−t)) was 1.75 h, the MRT inf ([1]; plasma, single oral dose of 50 mg/kg HP, read-out: MRT(0−∞)) was 1.81 h and the “progression of streptozotocin-induced diabetic nephropathy” value [2] was “could slow the progression”. The “progression of cationized BSA-induced membranous glomerulitis” value [3] was “could slow the progression”.
